Laboratory results reported in PubChem BioAssay (NCI).
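Test compounds were applied to cells in 96-well plates for 48 hours at 5 doses. GI50: concentration for 50% inhibition of growth. TGI denotes the concentration required for complete inhibition of growth.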

Key:
Test in all cases: growth of human tumour cells (NCI), 48 h
SNB-75 CNS = system: SNB-75 CNS
MCF7 breast = system: MCF7 breast
KM12 colon = system: KM12 colon
HL-60(TB) leukemia = system: HL-60(TB) leukemia
T-47D breast = system: T-47D breast
U251 CNS = system: U251 CNS
NCI/ADR-RES ovarian = system: NCI/ADR-RES ovarian
786-0 renal = system: 786-0 renal
SF-295 CNS = system: SF-295 CNS
ACHN renal = system: ACHN renal
M14 melanoma = system: M14 melanoma
DU-145 prostate = system: DU-145 prostate
TK-10 renal = system: TK-10 renal
PC-3 prostate = system: PC-3 prostate
CCRF-CEM leukemia = system: CCRF-CEM leukemia
MALME-3M melanoma = system: MALME-3M melanoma
OVCAR-5 ovarian = system: OVCAR-5 ovarian
SNB-19 CNS = system: SNB-19 CNS
UACC-62 melanoma = system: UACC-62 melanoma
COLO 205 colon = system: COLO 205 colon
SK-MEL-5 melanoma = system: SK-MEL-5 melanoma
NCI-H23 lung = system: NCI-H23 lung
MOLT-4 leukemia = system: MOLT-4 leukemia
SK-OV-3 ovarian = system: SK-OV-3 ovarian
HOP-62 NSCLC = system: HOP-62 NSCLC
UO-31 renal = system: UO-31 renal
SF-539 CNS = system: SF-539 CNS
CAKI-1 renal = system: CAKI-1 renal
RXF 393 renal = system: RXF 393 renal
SK-MEL-28 melanoma = system: SK-MEL-28 melanoma
SR leukemia = system: SR leukemia
SF-268 CNS = system: SF-268 CNS
HCT-15 colon = system: HCT-15 colon
IGROV1 ovarian = system: IGROV1 ovarian
A549 NSCLC = system: A549 NSCLC
HT29 colon = system: HT29 colon
NCI-H226 lung = system: NCI-H226 lung
LOX IMVI melanoma = system: LOX IMVI melanoma
MDA-MB-231 breast = system: MDA-MB-231 breast
A498 renal = system: A498 renal
HS 578T breast = system: HS 578T breast
UACC-257 melanoma = system: UACC-257 melanoma
BT-549 breast = system: BT-549 breast
HCC-2998 colon = system: HCC-2998 colon
HCT-116 colon = system: HCT-116 colon
SK-MEL-2 melanoma = system: SK-MEL-2 melanoma
MDA-MB-435 = system: MDA-MB-435
HOP-92 NSCLC = system: HOP-92 NSCLC
SW-620 colon = system: SW-620 colon
NCI-H460 lung = system: NCI-H460 lung
OVCAR-8 ovarian = system: OVCAR-8 ovarian
RPMI-8226 leukemia = system: RPMI-8226 leukemia
SN12C renal = system: SN12C renal
OVCAR-3 ovarian = system: OVCAR-3 ovarian
NCI-H522 lung = system: NCI-H522 lung

Cc1ccc(C)c(NC2=C(Cl)C(=O)c3nc(C)ccc3C2=O)c1
GI50 (SNB-75 CNS): 1.22 µM
TGI (SNB-75 CNS): 2.64 µM
GI50 (MCF7 breast): 0.917 µM
TGI (MCF7 breast): 3.01 µM
GI50 (KM12 colon): 1.54 µM
TGI (KM12 colon): 3.57 µM
GI50 (HL-60(TB) leukemia): 1.16 µM
TGI (HL-60(TB) leukemia): 3.36 µM
GI50 (T-47D breast): 1.26 µM
TGI (T-47D breast): 3.72 µM
GI50 (U251 CNS): 1.29 µM
TGI (U251 CNS): 2.78 µM
GI50 (NCI/ADR-RES ovarian): 1.33 µM
TGI (NCI/ADR-RES ovarian): 5.02 µM
GI50 (786-0 renal): 1.79 µM
TGI (786-0 renal): 3.74 µM
GI50 (SF-295 CNS): 1.75 µM
TGI (SF-295 CNS): 3.31 µM
GI50 (ACHN renal): 1.45 µM
TGI (ACHN renal): 2.91 µM
GI50 (M14 melanoma): 1.46 µM
TGI (M14 melanoma): 2.9 µM
GI50 (DU-145 prostate): 1.6 µM
TGI (DU-145 prostate): 3.08 µM
GI50 (TK-10 renal): 2.61 µM
TGI (TK-10 renal): 4.24 µM
GI50 (PC-3 prostate): 1.14 µM
TGI (PC-3 prostate): 2.92 µM
GI50 (CCRF-CEM leukemia): 1.61 µM
TGI (CCRF-CEM leukemia): 5.8 µM
GI50 (MALME-3M melanoma): 2.12 µM
TGI (MALME-3M melanoma): 4.17 µM
GI50 (OVCAR-5 ovarian): 2.41 µM
TGI (OVCAR-5 ovarian): 4.51 µM
GI50 (SNB-19 CNS): 1.49 µM
TGI (SNB-19 CNS): 3.42 µM
GI50 (UACC-62 melanoma): 1.56 µM
TGI (UACC-62 melanoma): 3.26 µM
GI50 (COLO 205 colon): 2.09 µM
TGI (COLO 205 colon): 4.49 µM
GI50 (SK-MEL-5 melanoma): 1.5 µM
TGI (SK-MEL-5 melanoma): 2.89 µM
GI50 (NCI-H23 lung): 1.26 µM
TGI (NCI-H23 lung): 3.92 µM
GI50 (MOLT-4 leukemia): 0.633 µM
TGI (MOLT-4 leukemia): 4.09 µM
GI50 (SK-OV-3 ovarian): 2.74 µM
TGI (SK-OV-3 ovarian): 14.6 µM
GI50 (HOP-62 NSCLC): 1.45 µM
TGI (HOP-62 NSCLC): 2.99 µM
GI50 (UO-31 renal): 1.25 µM
TGI (UO-31 renal): 2.64 µM
GI50 (SF-539 CNS): 1.65 µM
TGI (SF-539 CNS): 3.12 µM
GI50 (CAKI-1 renal): 1.43 µM
TGI (CAKI-1 renal): 3.03 µM
GI50 (RXF 393 renal): 1.22 µM
TGI (RXF 393 renal): 2.5 µM
GI50 (SK-MEL-28 melanoma): 1.99 µM
TGI (SK-MEL-28 melanoma): 3.7 µM
GI50 (SR leukemia): 0.695 µM
TGI (SR leukemia): 3.23 µM
GI50 (SF-268 CNS): 1.42 µM
TGI (SF-268 CNS): 3.29 µM
GI50 (HCT-15 colon): 0.848 µM
TGI (HCT-15 colon): 2.56 µM
GI50 (IGROV1 ovarian): 1.36 µM
TGI (IGROV1 ovarian): 3.3 µM
GI50 (A549 NSCLC): 2.1 µM
TGI (A549 NSCLC): 4.75 µM
GI50 (HT29 colon): 3.08 µM
TGI (HT29 colon): 8.77 µM
GI50 (NCI-H226 lung): 1.67 µM
TGI (NCI-H226 lung): 4.4 µM
GI50 (LOX IMVI melanoma): 0.288 µM
TGI (LOX IMVI melanoma): 1.59 µM
GI50 (MDA-MB-231 breast): 0.969 µM
TGI (MDA-MB-231 breast): 2.82 µM
GI50 (A498 renal): 2.03 µM
TGI (A498 renal): 8.14 µM
GI50 (HS 578T breast): 2.05 µM
TGI (HS 578T breast): 5.76 µM
GI50 (UACC-257 melanoma): 1.42 µM
TGI (UACC-257 melanoma): 2.82 µM
GI50 (BT-549 breast): 1.32 µM
TGI (BT-549 breast): 2.66 µM
GI50 (HCC-2998 colon): 1.75 µM
TGI (HCC-2998 colon): 3.25 µM
GI50 (HCT-116 colon): 0.333 µM
TGI (HCT-116 colon): 1.51 µM
GI50 (SK-MEL-2 melanoma): 1.93 µM
TGI (SK-MEL-2 melanoma): 3.89 µM
GI50 (MDA-MB-435): 1.41 µM
TGI (MDA-MB-435): 3.27 µM
GI50 (HOP-92 NSCLC): 1.84 µM
TGI (HOP-92 NSCLC): 3.78 µM
GI50 (SW-620 colon): 1.79 µM
TGI (SW-620 colon): 4.27 µM
GI50 (NCI-H460 lung): 1.88 µM
TGI (NCI-H460 lung): 3.95 µM
GI50 (OVCAR-8 ovarian): 1.79 µM
TGI (OVCAR-8 ovarian): 6.01 µM
GI50 (RPMI-8226 leukemia): 0.708 µM
TGI (RPMI-8226 leukemia): 3.34 µM
GI50 (SN12C renal): 1.05 µM
TGI (SN12C renal): 3.15 µM
GI50 (OVCAR-3 ovarian): 0.292 µM
TGI (OVCAR-3 ovarian): 1.15 µM
GI50 (NCI-H522 lung): 1.92 µM
TGI (NCI-H522 lung): 4.38 µM
